Molecules are shown by their SMILES.

In this assay the test system is HSV-1. Description: HSV-1 infection of Vero 76 cells, viral DNA detected by hybridization capture (chemiluminescence). Conditions: Human alphaherpesvirus 1; HSV-1 in Vero 76 cells, MOI=0.001, compounds incubated 40–48 hours at 37° C.; read-out: IC50. The format is cell-based. In outline:
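Vero 76 cells infected 45 min at 37° C with HSV-1 (MOI=0.001), seeded at 5×10^4 cells/well in 2% FBS medium with compounds, incubated 40–48 h, then lysed in 0.2 N NaOH/1% detergent. Viral DNA captured by UL13 plasmid, hybridized overnight at 42° C with digoxigenin-labeled UL15 probe, detected by anti-digoxigenin-HRP chemiluminescence.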
As for `COCCNc1cccc2c(-c3ccnc(NC4CC4)n3)c(-c3ccc(OC)cc3)nn12` [Example 64, 3-[2-(Cyclopropylamino)-4-pyrimidinyl]-N-(2-methoxyethyl)-2-(4-methoxyphenyl)pyrazolo[1,5-a]pyridin-7-amine], the IC50 stood at 300 nM.

As to `C=CCOc1ccc(-c2nn3c(NC4CCCC4)cccc3c2-c2ccnc(NC3CCCC3)n2)cc1` [Example 7, 2-[4-(Allyloxy)phenyl]-N-cyclopentyl-3-[2-(cyclopentylamino)-4-pyrimidinyl]pyrazolo[1,5-a]pyridin-7-amine], the IC50 stood at 150 nM.

In the case of `COc1cccc(-c2nn3c(NC4CCCC4)cccc3c2-c2ccnc(NC3CCCC3)n2)c1` [Example 51, N-Cyclopentyl-3-[2-(cyclopentylamino)-4-pyrimidinyl]-2-(3-methoxyphenyl)pyrazolo[1,5-a]pyridin-7-amine], the IC50 came out at 210 nM.

Take `Clc1ccc(-c2nn3c(NC4CCCC4)cccc3c2-c2ccnc(NC3CCCC3)n2)cc1Br` [Example 43, 2-(3-Bromo-4-chlorophenyl)-N-cyclopentyl-3-[2-(cyclopentylamino)-4-pyrimidinyl]pyrazolo[1,5-a]pyridin-7-amine]: the 50% inhibitory concentration (IC50) was 500 nM.

On to `c1ccc(-c2nn3c(NC4CCCC4)cccc3c2-c2ccnc(NC3CCCC3)n2)cc1` [Example 38, N-Cyclopentyl-3-[2-(cyclopentylamino)-4-pyrimidinyl]-2-phenylpyrazolo-[1,5-a]pyridin-7-amine], for which the IC50 stood at 300 nM.

On to `CCCCOc1ccc(-c2nn3c(NC4CCCC4)cccc3c2-c2ccnc(NC3CCCC3)n2)cc1` [Example 9, 2-(4-Butoxyphenyl)-N-cyclopentyl-3-[2-(cyclopentylamino)-4-pyrimidinyl]-pyrazolo[1,5-a]pyridin-7-amine], for which the IC50 was found to be 3000 nM.

As for `CCCCNc1nccc(-c2c(-c3ccc(NC4CCCCC4)cc3)nn3c(NCCCC)cccc23)n1` [Example 17, N-Butyl-3-[2-(butylamino)-4-pyrimidinyl]-2-[4-(cyclohexylamino)phenyl]-pyrazolo[1,5-a]pyridin-7-amine], the IC50 turned out to be 1500 nM.

For the molecule `Brc1cccc(-c2nn3c(N4CCCC4)cccc3c2-c2ccnc(NC3CCCC3)n2)c1` [Example 26, 4-[2-(3-Bromophenyl)-7-(1-pyrrolidinyl)pyrazolo[1,5-a]pyridin-3-yl]-N-cyclopentyl-2-pyrimidinamine], the IC50 stood at 600 nM.

As for `COc1cccc(-c2nn3c(Cl)cccc3c2-c2ccnc(NC3CCCC3)n2)c1` [Example 50, 4-[7-Chloro-2-(3-methoxyphenyl)pyrazolo[1,5-a]pyridin-3-yl]-N-cyclopentyl-2-pyrimidinamine], the concentration for half-maximal inhibition (IC50) is 2500 nM.

Take `COc1cccc(-c2nn3c(NC(C)C)cccc3c2-c2ccnc(NC3CCCC3)n2)c1` [Example 52, 3-[2-(Cyclopentylamino)-4-pyrimidinyl]-N-isopropyl-2-(3-methoxyphenyl)pyrazolo[1,5-a]pyridin-7-amine]: the 50% inhibitory concentration (IC50) turned out to be 560 nM.

Take `CCOC(=O)COc1ccc(-c2nn3c(NC4CCCC4)cccc3c2-c2ccnc(NC3CCCC3)n2)cc1` [Example 8, Ethyl (4-{7-(cyclopentylamino)-3-[2-(cyclopentylamino)-4-pyrimidinyl]-pyrazolo[1,5-a]pyridin-2-yl}phenoxy)acetate]: the IC50 turned out to be 3000 nM.

With `Clc1cccc(-c2nn3c(NC4CCCC4)cccc3c2-c2ccnc(NC3CCCC3)n2)c1` [Example 57, 2-(3-Chlorophenyl)-N-cyclopentyl-3-[2-(cyclopentylamino)-4-pyrimidinyl]pyrazolo[1,5-a]pyridin-7-amine], the IC50 was found to be 200 nM.

Take `NC(=O)c1cccc(-c2nn3c(NC4CCCC4)cccc3c2-c2ccnc(NC3CCCC3)n2)c1` [Example 40, 3-{7-(Cyclopentylamino)-3-[2-(cyclopentylamino)-4-pyrimidinyl]-pyrazolo[1,5-a]pyridin-2-yl}benzamide]: the IC50 turned out to be 2500 nM.

One may read the IC50 as the concentration that inhibits the measured activity by half.

These data come from patent US7153855B2, “Pyrazolopyridinyl pyrimidine therapeutic compounds” (SmithKline Beecham Corporation, priority 2001, dated 2006).
